Assay results: the NIST ThermoML archive (doi:10.1021/je400781b)
Numbers after ± are expanded uncertainties.

Assay: xn = mol fraction of the nth substance listed
Details: 101 kPa, Liquid; for speed of sound: Frequency=2.75 MHz, Pulse-echo method; for mass density: Vibrating tube method

CCCC[n+]1ccn(C)c1.O=S(=O)([N-]S(=O)(=O)C(F)(F)F)C(F)(F)F + C1CCOC1
Details	mass density, 293.15 K [kg/m3]	mass density, 298.15 K [kg/m3]	mass density, 303.15 K [kg/m3]	mass density, 308.15 K [kg/m3]	speed of sound, 293.15 K [m/s]	speed of sound, 298.15 K [m/s]	speed of sound, 303.15 K [m/s]	speed of sound, 308.15 K [m/s]
x1 = 0.0507	981.03 ± 0.63	975.68 ± 0.62	970.55 ± 0.62	965.26 ± 0.63	1276.2 ± 1.2	1254.6 ± 1.2	1233.2 ± 1.2	1212 ± 1.2
x1 = 0.124	1080.62 ± 0.49	1075.39 ± 0.49	1070.15 ± 0.49	1064.96 ± 0.49	1257.3 ± 1.2	1238.5 ± 1.2	1219.9 ± 1.2	1201.5 ± 1.2
x1 = 0.1963	1153.02 ± 0.34	1147.88 ± 0.33	1142.73 ± 0.33	1137.6 ± 0.34	1246.9 ± 1.2	1230 ± 1.2	1213.2 ± 1.2	1196.6 ± 1.2
x1 = 0.3526	1258.69 ± 0.3	1253.67 ± 0.3	1248.66 ± 0.3	1243.66 ± 0.3	1236.8 ± 1.2	1222.4 ± 1.2	1208 ± 1.2	1193.8 ± 1.2
x1 = 0.4962	1321.98 ± 0.3	1317.04 ± 0.3	1312.1 ± 0.3	1307.18 ± 0.3	1234.1 ± 1.3	1220.9 ± 1.3	1207.8 ± 1.3	1194.9 ± 1.3
x1 = 0.6378	1366.6 ± 0.36	1361.72 ± 0.36	1356.84 ± 0.35	1351.97 ± 0.35	1233.5 ± 1.3	1221 ± 1.3	1208.7 ± 1.3	1196.5 ± 1.3
x1 = 0.8047	1405.56 ± 0.46	1400.72 ± 0.46	1395.89 ± 0.46	1391.07 ± 0.45	1235.6 ± 1.4	1223.8 ± 1.4	1212.2 ± 1.4	1200.7 ± 1.4
x1 = 0.9143	1425.59 ± 0.54	1420.79 ± 0.54	1415.99 ± 0.54	1411.2 ± 0.53	1236.9 ± 1.5	1225.4 ± 1.5	1214.1 ± 1.5	1203 ± 1.5
x1 = 1	1439.23 ± 0.61	1434.44 ± 0.61	1429.65 ± 0.6	1424.88 ± 0.6	1237.9 ± 1.5	1226.7 ± 1.5	1215.6 ± 1.5	1204.6 ± 1.5

CCCC[n+]1ccn(C)c1.O=S(=O)([N-]S(=O)(=O)C(F)(F)F)C(F)(F)F + CC#N
Details	mass density, 293.15 K [kg/m3]	mass density, 298.15 K [kg/m3]	mass density, 303.15 K [kg/m3]	mass density, 308.15 K [kg/m3]	mass density, 313.15 K [kg/m3]	speed of sound, 293.15 K [m/s]	speed of sound, 298.15 K [m/s]	speed of sound, 303.15 K [m/s]	speed of sound, 308.15 K [m/s]	speed of sound, 313.15 K [m/s]
x1 = 0.0506	936.84 ± 0.95	931.39 ± 0.94	925.93 ± 0.94	920.45 ± 0.94	914.95 ± 0.96	1259.9 ± 1.2	1241.7 ± 1.2	1223.7 ± 1.2	1205.7 ± 1.2	1187.9 ± 1.2
x1 = 0.1242	1078.45 ± 0.63	1073.07 ± 0.63	1067.67 ± 0.63	1062.27 ± 0.63	1056.87 ± 0.64	1241 ± 1.2	1224.8 ± 1.2	1208.7 ± 1.2	1192.7 ± 1.2	1176.8 ± 1.2
x1 = 0.2041	1175.48 ± 0.39	1170.19 ± 0.38	1164.9 ± 0.38	1159.61 ± 0.38	1154.32 ± 0.4	1235 ± 1.2	1220.1 ± 1.2	1205.3 ± 1.2	1190.6 ± 1.2	1176 ± 1.2
x1 = 0.341	1275.66 ± 0.31	1270.52 ± 0.31	1265.38 ± 0.31	1260.25 ± 0.31	1255.12 ± 0.32	1234 ± 1.3	1220.4 ± 1.2	1206.9 ± 1.2	1193.5 ± 1.2	1180.3 ± 1.2
x1 = 0.5016	1343.88 ± 0.33	1338.86 ± 0.32	1333.85 ± 0.32	1328.85 ± 0.32	1323.86 ± 0.32	1235.1 ± 1.3	1222.4 ± 1.3	1209.9 ± 1.3	1197.5 ± 1.3	1185.2 ± 1.3
x1 = 0.6525	1384.46 ± 0.39	1379.53 ± 0.39	1374.6 ± 0.38	1369.69 ± 0.38	1364.79 ± 0.38	1236.2 ± 1.4	1224.1 ± 1.4	1212.1 ± 1.4	1200.3 ± 1.4	1188.6 ± 1.4
x1 = 0.7861	1410.16 ± 0.47	1405.28 ± 0.46	1400.42 ± 0.46	1395.58 ± 0.45	1390.74 ± 0.45	1237.1 ± 1.4	1225.4 ± 1.4	1213.8 ± 1.4	1202.4 ± 1.4	1191 ± 1.4
x1 = 0.9575	1434.22 ± 0.58	1429.41 ± 0.58	1424.61 ± 0.57	1419.83 ± 0.57	1415.06 ± 0.56	1237.9 ± 1.5	1226.6 ± 1.5	1215.4 ± 1.5	1204.3 ± 1.5	1193.4 ± 1.5
x1 = 1	1439.23 ± 0.61	1434.44 ± 0.61	1429.65 ± 0.6	1424.88 ± 0.6	1420.12 ± 0.59	1237.9 ± 1.5	1226.7 ± 1.5	1215.6 ± 1.5	1204.6 ± 1.5	1193.7 ± 1.5
